We go through six compounds from the supplement of paper PMC4862054.

The structures appear in SMILES notation. A value given as a limit tells only on which side of the number the result lay.

For assay [1], the system named is BT-474. Briefly: normalised response (% of control), CellTiter-Glo; higher = more viable cells (100 = DMSO, 0 = benzethonium chloride kill control). As to conditions: incubation time: 72 h. An outline of the steps: (§1)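 Plates were normalised with 0.1 % DMSO as 100 and a positive kill control as 0. Breast cancer cell lines in 20 µl suspension had been seeded into 384-well plates with compound at 5 concentrations in 10-fold steps over a compound-specific 10,000-fold range, incubated 72 h, and read for CellTox Green fluorescence (485/520 nm) followed by CellTiter-Glo luminescence. Each value is the normalised signal at a single concentration.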
(Cellular ATP, detected with luciferase, serves as a proxy for viable cell number.)

Assay [2] relates to BT-549. The description is as above. To be noted: incubation time: 72 h. In short, it runs like this: as §1
Assay [3] relates to MDA-MB-468. The description is as above. To be noted: incubation time: 72 h. An outline of the steps: as §1
Assay [4] has as its system HCC1143. The assay is described as above. As to conditions: incubation time: 72 h. In short, it runs like this:
as §1

Assay [5] deals with Hs578T. The description is as above. To be noted: incubation time: 72 h. An outline of the steps: as §1
The subject of assay [6] is HDQ-P1. Described as above. As to conditions: incubation time: 72 h. In short, it runs like this: as §1
Assay [7] has as its system CAL-85-1. Described as above. To be noted: incubation time: 72 h. An outline of the steps:
as §1

For assay [8], the system named is CAL-120. The description is as above. As to conditions: incubation time: 72 h. An outline of the steps:
as §1

The subject of assay [9] is CAL-51. The description is as above. As to conditions: incubation time: 72 h. An outline of the steps: as §1
The test system of assay [10] is SK-BR-3. Described as above. As to conditions: incubation time: 72 h. An outline of the steps: as §1
Assay [11] deals with HCC1937. The description is as above. As to conditions: incubation time: 72 h. In short, it runs like this: as §1
For assay [12], the system named is MFM-223. The description is as above. As to conditions: incubation time: 72 h. An outline of the steps:
as §1

The test system of assay [13] is DU-4475. Described as above. To be noted: incubation time: 72 h. An outline of the steps: as §1
In assay [14] the test system is MDA-MB-436. The description is as above. To be noted: incubation time: 72 h. An outline of the steps: as §1
Assay [15] has as its system MDA-MB-453. Described as above. To be noted: incubation time: 72 h. In short, it runs like this: as §1
Assay [16] has as its system MDA-MB-231. The assay is described as above. As to conditions: incubation time: 72 h. In short, it runs like this:
as §1

Assay [17] deals with HCC1599. Described as above. To be noted: incubation time: 72 h. In short, it runs like this:
as §1

Assay [18] has as its system BT-549. As to conditions: 72 h. In short, it runs like this: (§2)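 Breast cancer cell lines in 20 µl suspension were added to 384-well plates already holding compound at 5 concentrations, spaced in 10-fold steps across a compound-specific 10,000-fold range, and incubated for 72 h. CellTox Green fluorescence (485/520 nm) was read first to measure cell death, followed by CellTiter-Glo luminescence for viability after 10 min at room temperature. Each plate was normalised to 0.1 % DMSO and a positive kill control. EC50 values came from dose-response curve fits and were censored at the top concentration.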

Assay [19] relates to Hs578T. As to conditions: 72 h. An outline of the steps:
as §2

For assay [20], the system named is CAL-148. As to conditions: 72 h. In short, it runs like this: as §2
Assay [21] relates to SK-BR-3. As to conditions: 72 h. In short, it runs like this:
as §2

The test system of assay [22] is MFM-223. As to conditions: 72 h. An outline of the steps: as §2
In assay [23] the test system is DU-4475. As to conditions: 72 h. An outline of the steps:
as §2

In assay [24] the test system is MDA-MB-453. As to conditions: 72 h. An outline of the steps: as §2
The test system of assay [25] is MDA-MB-468. To be noted: 72 h. In short, it runs like this:
as §2

Assay [26] relates to MDA-MB-436. As to conditions: 72 h. An outline of the steps:
as §2

In assay [27] the test system is CAL-120. To be noted: 72 h. In short, it runs like this:
as §2

Assay [28] relates to CAL-51. As to conditions: 72 h. In short, it runs like this:
as §2

Assay [29] relates to CAL-51. To be noted: 72 h. On the procedure: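 Drug sensitivity and resistance testing (DSRT) of breast cancer cell lines in 384-well plates, 5 concentrations in 10-fold dilutions over a compound-specific 10,000-fold range. After 72 h, cytotoxicity was read by CellTox Green fluorescence and viability by CellTiter-Glo luminescence (multiplexed), normalised to DMSO and benzethonium chloride controls. EC50 is the inflection point of the fitted dose-response curve (bottom asymptote free, so it can be relative for partial curves) and is censored at the highest tested concentration. Rows with DSS 0 (no meaningful response) were excluded.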
The source holds these as a separate data set.

As to `O=C(O)CC[C@H]1CC[C@@](c2cc(F)ccc2F)(S(=O)(=O)c2ccc(Cl)cc2)CC1` [MK-0752] (1000 nM), the normalised response in assay [1] turned out to be 95.4%; in assay [2], 93%; in [3] it was 94%; in [4], 103%; in assay [5], 98.5%; in assay [6] it was 95.5%. Besides, the normalised response in assay [7] turned out to be 98.1%; in assay [8], 105%; in [9], 126%; in assay [10], 117%; in [11] it was 95.1%; in assay [12], 100%. In addition, the normalised response is 102% in [13]; 105% in assay [14]; 108% in [15]; 97% in assay [16]; 89% in [17].
With `NC1(c2ccc(-c3nc4ccn5c(=O)[nH]nc5c4cc3-c3ccccc3)cc2)CCC1` [MK-2206], the “EC50, CellTiter-Glo” value in assay [18] was 0.137 µM; in assay [19] it was greater than 1 µM; in assay [20], 0.279 µM; in assay [21] it was 0.28 µM; in assay [22], 0.436 µM; in assay [23], greater than 1 µM. The “EC50, CellTiter-Glo” value in assay [24] was found to be 0.472 µM.
Turning to `NC(=O)c1cccc2cn(-c3ccc([C@@H]4CCCNC4)cc3)nc12` [MK-4827], the “EC50, CellTiter-Glo” value amounted to 9.35 µM in assay [25], 2.63 µM in assay [20], 1.09 µM in [23] and 0.601 µM in assay [26].
As to `NC(=O)c1cccc2cn(-c3ccc([C@@H]4CCCNC4)cc3)nc12` [MK-4827] (10000 nM), the normalised response in assay [1] came to 85.8%; in assay [2] it was 83.7%; in [3], 45.8%; in assay [4], 87.3%; in assay [5] it was 85.2%; in assay [6], 94.3%. The normalised response in [7] was determined as 81.8%; in [8], 93.2%; in assay [9] it was 65.8%; in [10], 73.3%; in assay [11] it was 101%; in [12], 106%. Also, the normalised response in [13] was determined as 69.3%; in assay [14], 68.9%; in [15] it was 108%; in [16], 87.4%; in [17] it was 91.4%.
As for `O=C(c1cc(Cc2n[nH]c(=O)c3ccccc23)ccc1F)N1CCN(C(=O)C2CC2)CC1` [Olaparib], the “EC50, CellTiter-Glo” value in assay [18] was 4.14 µM; in [25], 1.51 µM; in assay [20], 1.2 µM; in assay [27], greater than 10 µM; in assay [28], 0.0454 µM; in assay [26], 1.04 µM. Moreover, in [29], the “EC50, CellTox Green” value amounted to 8.3 µM.
For `CO[C@H](C(=O)[C@@H](O)[C@@H](C)O)[C@@H]1Cc2cc3cc(O[C@H]4C[C@@H](O[C@@H]5C[C@@H](O)[C@H](O)[C@@H](C)O5)[C@H](O)[C@@H](C)O4)c(C)c(O)c3c(O)c2C(=O)[C@H]1O[C@H]1C[C@@H](O[C@@H]2C[C@@H](O)[C@@H](O[C@@H]3C[C@](C)(O)[C@H](O)[C@@H](C)O3)[C@@H](C)O2)[C@H](O)[C@@H](C)O1` [Plicamycin] (10000 nM), the normalised response in assay [1] amounted to 9.55%; in assay [2], 1.99%; in assay [3], 4.44%; in [4] it was 6.57%; in assay [5], 8.19%; in assay [6] it was 19.1%. Moreover, the normalised response came to 9.87% in assay [7]; 27% in assay [8]; 9.56% in assay [9]; 10.1% in assay [10]; 21% in assay [11]; 29.1% in [12]. The normalised response was 1.22% in [13]; 22.5% in [14]; 16.1% in [15]; 7.32% in assay [16]; 4.89% in assay [17].
